Assays:
BbLDH [1] = molecular target: T1, BbLDH (Borreliella burgdorferi, UniProt O51114); assay: Enzyme kinetics of inhibition with varying pyruvate as substrate, 0–100 µM inhibitor; type: biochemical; conditions: for type of inhibition for pyruvate substrate (Lineweaver–Burk plots): Fig. S7
T1 construct: we expressed and purified a full-length N-terminal His- and FLAG-tagged BB_0087 recombinant protein (rBB_0087); 10xHis (N); FLAG (N); made in house; host or cells: E. coli Rosetta-gami 2 (DE3)
Experimental: The inhibitory effect of gossypol and the four lead inhibitors of BbLDH was performed using 0–100 µM of inhibitors or an equal volume of DMSO vehicle in 50 mM Tris-HCl buffer (pH 7.0) containing 100 ng of BbLDH, 0.5 mM NADH, 2.4 mM pyruvate, and 3 mM FBP at 37°C. All experiments were repeated at least twice. The amount of NADH produced or consumed was extrapolated from the NADH standard curve and plotted in GraphPad Prism 10 (GraphPad Software, La Jolla, CA, USA) using Allosteric Sigmoidal mode to obtain the Vmax and Km values. Lineweaver–Burk plots were generated using the mean reciprocal values of substrates and velocities obtained from the inhibition studies.

BB_0087 (BbLDH) = molecular target: T2, BB_0087 (BbLDH) (Borreliella burgdorferi, UniProt O51114); assay: Lactate dehydrogenase activity assay kit, NADH generation from lactate by recombinant BB_0087; type: biochemical; conditions: 100 µM gossypol; 50 ng purified recombinant protein
T2 construct: we expressed and purified a full-length N-terminal His- and FLAG-tagged BB_0087 recombinant protein (rBB_0087); 10xHis (N); FLAG (N); made in house; host or cells: E. coli Rosetta-gami 2 (DE3)
Experimental: To establish the LDH activity of BbLDH, we first used a commercial lactate dehydrogenase activity assay kit (Sigma Aldrich, St. Louis, MO) to measure the ability of BbLDH to reduce NAD to NADH following the manufacturer’s instruction. Commercial LDH inhibitor gossypol (catalog # G8761, Sigma Aldrich) was dissolved in DMSO at a stock concentration of 100 mM. A concentration of 1 µg/µL of recombinant wild-type or H178A BbLDH stocks was diluted 1:20 in the LDH assay buffer to a final working volume of 400 µL per well. A 100 µM of gossypol or DMSO was added to selected wild-type BbLDH wells to determine the inhibitory effect of gossypol on BbLDH activity. Reactions were set up in triplicate wells along with NADH standards. The LDH activity was calculated using the formulation provided by the manufacturer.

BbLDH [2] = molecular target: T1, BbLDH; assay: Enzyme kinetics of inhibition, lactate to pyruvate reaction, NADH read at OD340; type: biochemical; conditions: Fig. 1F
Experimental: The enzyme kinetics of BbLDH, with substrates pyruvate or lactate, was monitored by the reduction or oxidation of NADH at OD340 as previously described ([92]) using a Varioskan LUX multimode microplate reader (Thermo Fisher Scientific, Rockford, IL) with minor modifications. Briefly, the conversion of pyruvate to lactate activity was performed at 37°C in 50 mM Tris-HCl buffer pH 7.0 containing 100 ng of BbLDH, 0.5 mM NADH, 2.4 mM pyruvate and with/without 3 mM FBP. The conversion of lactate to pyruvate activity was measured at 37°C in sodium bicarbonate buffer (pH 7.0) containing 100 ng of BbLDH, 1 mM NAD^+, 0–300 mM sodium L-lactate, with/without 3 mM FBP. The kinetic parameters of BbLDH were determined using 0–6.0 mM pyruvate, 0–1.0 mM NADH, 0–2.0 mM NAD^+, 50 mM Tris-HCl buffer, pH 5.0–10.0, or reaction temperature of 25°C, 30°C, and 37°C. All reactions were performed in 96-well plates with a final volume of 200 µL per well.
All experiments were repeated at least twice. The amount of NADH produced or consumed was extrapolated from the NADH standard curve and plotted in GraphPad Prism 10 (GraphPad Software, La Jolla, CA, USA) using Allosteric Sigmoidal mode to obtain the Vmax and Km values. Lineweaver–Burk plots were generated using the mean reciprocal values of substrates and velocities obtained from the inhibition studies.

B. burgdorferi = assay: In vitro growth analysis of wild-type B. burgdorferi with inhibitors, Petroff-Hausser counting; type: cell-based, Borreliella burgdorferi; conditions: 0–300 µM tested, BSK-II medium, 34°C
Experimental: To measure the growth of the WT B31 A3-68 and 87^mut, 87^mut was first cultivated in the presence of 1 mM IPTG until the stationary phase along with the WT. Cells were harvested via centrifugation and washed with PBS to remove all traces of IPTG. A concentration of 1 × 10^5 cells/mL of WT or 87^mut were inoculated into 10 mL of fresh BSK-II and incubated at 34°C with or without 1 mM IPTG. Bacterial cells were enumerated daily until the cells entered the stationary growth phase (~1 × 10^8 cells/mL) using a Petroff-Hausser counting chamber, as previously described ([100]). At the end of the growth study, cultures were harvested for immunoblot analysis to detect the expression of BbLDH. Growth analyses were repeated in triplicates, and the results were expressed as the means ± standard errors of the means (SEM). To determine the growth inhibition of LDH inhibitors on B. burgdorferi, 10^5 cells/mL of stationary WT cultures were inoculated into a fresh 5 mL BSK-II medium containing the specified concentration of inhibitors. Equal volumes of DMSO were included as negative controls to rule out the inhibitory effect of DMSO on the growth of B. burgdorferi. Cells were maintained at 34°C with a 3.4% CO2 incubator, and cell numbers were enumerated every 2 days until the cells reached the stationary growth phase using the Petroff-Hausser counting chamber.

BbLDH [3] = molecular target: T1, BbLDH; assay: Small compound library screening (Natural Products Set IV) for inhibition of BbLDH activity; type: biochemical; conditions: Extended Data Fig. 7A
Experimental: To identify potential novel LDH inhibitors against BbLDH, the Natural Products Set IV library containing 419 natural compounds selected from the DTP Open Repository collection was obtained from the National Cancer Institute (NCI). All compounds were dissolved in DMSO to a working stock solution of 10 mM. Primary screening was performed using a label-free HTS protocol ([54]) in 384-well plates. Buffer B (20 mM Tris pH 7.4, 0.005% Triton X-100, 0.005% BGG, 2 mM DTT) containing 10 nM BbLDH, 75 µM pyruvate, and 50 µM NADH was dispensed into each well containing pre-dispensed inhibitors to a final concentration of 10 µM in 50 µL working volume per well. Fluorescence was measured using an excitation wavelength of 340 nm and an emission wavelength of 482 nm. Readings were recorded every second over a total duration of 5 min. Gossypol and DMSO were included as positive and negative controls, respectively. Fluorescent signals were plotted over time for each compound and analyzed using linear regression to determine the slope of reduction compared to DMSO and gossypol. Twenty-three compounds with a reduced slope in comparison to DMSO were selected for a second round of screening.
For the secondary screening, a lactate dehydrogenase activity assay kit (Sigma Aldrich) was used to determine the inhibitory effect of selected small compounds on BbLDH activity. Reactions were performed following the manufacturer’s protocol using 10 and 25 µM of small compounds and 10 nM BbLDH per well. Gossypol and DMSO were included as positive and negative controls, respectively. Compounds that reduced the LDH activity of BbLDH compared to DMSO treatment wells were selected for further analysis.

HeLa cells = assay: Cell viability, crystal violet assay, 72 h; type: cell-based, human
Experimental: (§1) Immortalized cervical carcinoma cells (HeLa) and TIGKs were purchased from ATCC. HeLa cells were cultured and maintained in Dulbecco’s Modified Eagle Medium with high glucose and supplemented with 10% FBS and 100 µg/mL of penicillin and streptomycin. TIGK cells were cultured in a serum-free keratinocyte growth medium (KGM; Lifeline Cell Technology, MD) as described previously ([56]). Cells were incubated at 37°C, 5% CO2 incubator.
(§2) To determine the toxicity of LDH inhibitors on eukaryotic cells, HeLa and TIGK cells were seeded onto a 96-well plate at 10^4 cells per well the day before drug treatment. Cell culture media were removed the next day and replaced with culture media containing the specified concentration of DMSO, gossypol, 45923, or 350085. Mock-treated wells were included for cell viability normalization purposes. Cells were incubated with inhibitors for 72 h. To determine the cell viability, the crystal violet assay was used as described ([57]). Briefly, cell culture media were decanted from the 96-well plate and washed once with water. A volume of 50 µL of 0.5% crystal violet staining solution (0.5 g crystal violet powder, 80 mL ddH2O, 20 mL methanol) were incubated for 20 min at room temperature (RT) with gentle shaking. Plates were washed 4–5 times by soaking in ddH2O followed by gentle tapping to remove any remaining liquid. Plates were air-dried at RT. A 200 µL of methanol was added to each well. The resulting plates were incubated for 20 min at RT with gentle shaking followed by optical density measurement at 570 nm (OD570) using a Varioskan LUX multimode microplate reader (Thermo Fisher Scientific). The OD570 of mock cells was set to 100% and the percentage of viable cells treated with inhibitors was determined by comparing the average OD570 values of treated wells to mock wells. The experiment was performed in triplicate wells with two technical replicates and two biological replicates. Two-way analysis of variance was used for statistical analysis with significant values of P < 0.05.

[4] = tested on: telomerase immortalized gingival keratinocytes (TIGKs); assay: Cell viability, crystal violet assay, 72 h; type: cell-based, human
Experimental: as §1, §2

T1 sequence (O51114 whole entry): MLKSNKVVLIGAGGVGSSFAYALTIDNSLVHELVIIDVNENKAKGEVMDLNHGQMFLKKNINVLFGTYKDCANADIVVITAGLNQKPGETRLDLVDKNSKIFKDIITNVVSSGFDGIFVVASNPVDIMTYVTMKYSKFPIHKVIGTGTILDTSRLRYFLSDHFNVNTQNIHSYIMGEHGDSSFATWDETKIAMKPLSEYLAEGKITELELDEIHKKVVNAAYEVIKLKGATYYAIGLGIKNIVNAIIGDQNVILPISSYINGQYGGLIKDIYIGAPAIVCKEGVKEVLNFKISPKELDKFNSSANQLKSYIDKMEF
T2 sequence (O51114 whole entry): as above

SMILES | Ki (BbLDH [1]) | type of inhibition for pyruvate substrate (Lineweaver–Burk plots) (BbLDH [1]) | LDH activity of BB_0087 (NADH generated from lactate) upon treatment (BB_0087 (BbLDH)) | Ki (BbLDH [2]) | concentration at which inhibitory effect on growth was observed (B. burgdorferi) | reduction in LDH activity (hit cutoff) (BbLDH [3]) | concentration at which growth inhibition of HeLa cells begins (HeLa cells) | concentration at which toxicity to TIGKs begins ([4]; crystal violet, non-cancerous cell line) | concentration at which toxicity to TIGKs begins ([4]; human) | Ki (BbLDH [1]; varying pyruvate as substrate, 0.5 mM NADH, 3 mM FBP, pH 7.0, 37°C, Fig. 5, read-out: Ki)
CCC(C)(O)C(=O)OC1C(=O)OC2CC3C(C)=CC(O)C(O)C3(C)C3C4(O)OCC23C1C(C)C4O (stereo not drawn) [compound 14975] | 66 µM | competitive inhibitors | – | – | – | – | – | – | – | –
Cc1cc2c(C(C)C)c(O)c(O)c(C=O)c2c(O)c1-c1c(C)cc2c(C(C)C)c(O)c(O)c(C=O)c2c1O [gossypol] | 36 µM | uncompetitive inhibition | completely abolished | 13 µM | 100 µM | – | – | – | – | –
CCC(C)c1occ2c(O)c(C(=O)O)c(=O)cc-2c1C (stereo not drawn) [compound 114344] | 349 µM | competitive inhibitors | – | – | – | ≥ 75% | – | – | – | –
COc1ccc2c(c1)O[C@H]1c3ccc(O)cc3OC[C@@H]21 (stereo in doubt) [compound 350085, Medicarpin] | 205 µM | competitive inhibitors | – | – | – | ≥ 75% | 5 µM | 20 µM | – | –
COc1c2occc2cc2ccc(=O)oc12 [compound 45923, Methoxsalen] | – | competitive inhibitors | – | – | 100 µM | ≥ 75% | 10 µM | – | > 50 µM | 54 µM
